Source: patent US11140903B2, “Fungicidal compositions and methods” (Bayer CropScience LP, priority 2010, dated 2021)

What was measured:
Pyrenophora = assay: Fluopyram efficacy by fungus (Table 3)
Anthracnose = assay: Fluopyram efficacy by fungus (Table 3)
Venturia = assay: Fluopyram efficacy by fungus (Table 3)
[1] = system: sudden death syndrome (SDS); assay: Soybean seed treatment: resistance to SDS (incidence, severity, defoliation); type: in vivo, Glycine max (L.) Merr.
Protocol: (§1) Soybean seeds (Glycine max (L.) Merr., an indeterminate line) were treated with Trilex® 2000 (7.12% (w/v) trifloxystrobin, 5.69% (w/v) metalaxyl), Gaucho® 600 FS (48.7%, (w/v) imidacloprid), Votivo® 240 FS (21.5%, (w/v) Bacillus firmus strain 1-1582), and fluopyram (41.5%, (w/v)) in the amounts and combinations shown in TABLE 1.
(§2) Seed growth and resistance to SDS were evaluated. Data on the incidence and severity of disease, plant vigor, plant count, plant density, defoliation, and yield were collected. Identification of SDS was based on the visual symptoms described in “Compendium of Soybean Diseases” (Glen Lee Hartman, J. B. Sinclair, and John Clark Rupe, eds. Am. Phytopathological Soc. 1999).
Disease incidence was defined as the percentage of plants in the plot with visible symptoms of SDS. […] The values above each bar in FIG. 1 are the value of that bar along they-axis.
Symptoms of disease severity were determined as percent severity, on a scale of 0% to 100%, by examining the leaf area on the tops of plants and determining the area affected by SDS, expressed as a percentage of the total area. […] The error bars of FIG. 2 represent standard error, and the values above each bar are the value of that bar along the y-axis.
Defoliation was defined as the percentage of plants showing evidence of defoliation in a given plot (i.e., on a scale of 0% to 100%). […] The values above each bar are the value of that bar along the y-axis.

Sigatoka = assay: Fluopyram efficacy by fungus (Table 3)
Cylindrocladium = settings: Fungus: Cylindrocladium
Powdery mildews = settings: Fungus: Powdery mildews
Colletotrichum = assay: Fluopyram efficacy by fungus (Table 3)
Text: (§3) Without wishing to be bound by theory, the applicant hypothesizes that the decreased incidence and severity of SDS observed in plants from seed treated with fluopyram contributes to improved vigor and reduced defoliation, which in turn contributes to improved yield.

Rusts = assay: Fluopyram efficacy by fungus (Table 3)
Text: as §3

Fusarium = assay: Fluopyram efficacy by fungus (Table 3)
Text: as §3

Septoria = settings: Fungus: Septoria
Didymella = settings: Fungus: Didymella
Monilinia = assay: Fluopyram efficacy by fungus (Table 3)
Sclerotinia = assay: Fluopyram efficacy by fungus (Table 3)
Alternaria = assay: Fluopyram efficacy by fungus (Table 3)
soybean plants = assay: Soybean seed treatment: plant vigor, count density and yield; type: in vivo, Glycine max (L.) Merr.
Protocol: as §1, §2
Vigor ratings, based on visual assessments of plant health, were collected according to the system shown in TABLE 2, with 1 being a healthy and vigorous plant and 6 being extremely low vigor.
The error bars of FIG. 3 represent standard error, and the values within each bar are the value of that bar along the y-axis.
Plant density was calculated as the change in density versus controls. […] The values above or below each bar are the value of that bar along the y-axis.
To determine yield, soybeans were harvested from each plot, weighed, and their moisture content determined. The data from each treatment were normalized to the standard weight of 60 pounds of soybeans at 13% moisture. […] The values above or below each bar are the value of that bar along the y-axis.

Botrytis = assay: Fluopyram efficacy by fungus (Table 3)
Mycosphaerella = assay: Fluopyram efficacy by fungus (Table 3)

O=C(NCCc1ncc(C(F)(F)F)cc1Cl)c1ccccc1C(F)(F)F [Fluopyram, N-{2-[3-chloro-5-(trifluoromethyl)-2-pyridinyl]ethyl}-2-trifluoromethylbenzamide] was tested. Which “Fluopyram Efficacy” value (Pyrenophora) did it give?
The value was “+++”.

What about the “Fluopyram Efficacy” value (Anthracnose) of the same compound?
Its value is “+”.

What about the “Fluopyram Efficacy” value (Venturia) of the same compound?
The value was “+++”.

And the “Disease incidence (percentage of plants in the plot with visible symptoms of SDS)” value ([1]; FIG. 1, compared between seeds with and without fluopyram)?
Its value is “significantly reduced disease incidence”.

And the “Disease severity (percent leaf area affected by SDS)” value ([1]; FIG. 2, compared between seeds with and without fluopyram)?
The value was “less disease severity”.

And the “Defoliation (percentage of plants showing evidence of defoliation in a plot)” value ([1]; FIG. 5, compared between seeds with and without fluopyram)?
The value was “less defoliation”.

And the “Fluopyram Efficacy” value (Sigatoka)?
The value was “++++”.

And the “Fluopyram Efficacy” value (Cylindrocladium)?
Its value is “++”.

And the “Fluopyram Efficacy” value (Powdery mildews)?
The value was “++++”.

And the “Fluopyram Efficacy” value (Colletotrichum)?
Its value is “++”.

What about the “Fluopyram Efficacy” value (Rusts) of the same compound?
Its value is “+”.

What about the “Fluopyram Efficacy” value (Fusarium; Fungus: Fusarium) of the same compound?
Its value is “+”.

And the “efficacy of fluopyram against Fusarium” value (Fusarium; relative to other fungi)?
Its value is “low”.

And the “Fluopyram Efficacy” value (Septoria)?
Its value is “++”.

What about the “Fluopyram Efficacy” value (Didymella) of the same compound?
The value was “++”.

What about the “Fluopyram Efficacy” value (Monilinia) of the same compound?
Its value is “++++”.

What about the “Fluopyram Efficacy” value (Sclerotinia) of the same compound?
The value was “++++”.

What about the “Fluopyram Efficacy” value (Alternaria) of the same compound?
The value was “+++”.

And the “Count density (change in plant density versus control)” value (soybean plants; fluopyram alone, 0.17-0.67 mga/seed (columns 4-6), FIG. 4, versus control)?
The value was “decreased count density”.

And the “Vigor (visual vigor rating, scale 1-6 of Table 2)” value (soybean plants; soybean seed treatment, FIG. 3)?
The value was “not adversely affected”.

And the “Percent yield versus control” value (soybean plants; soybean seed treatment, FIG. 6, normalized to 60 pounds at 13% moisture, versus seeds not treated with fluopyram)?
The value was “greater percent yield”.

What about the “Fluopyram Efficacy” value (Botrytis) of the same compound?
The value was “++++”.

What about the “Fluopyram Efficacy” value (Mycosphaerella) of the same compound?
Its value is “++++”.
